Measured values reported in article PMC7465886, “4-(N-Alkyl- and -Acyl-amino)-1,2,4-triazole-3-thione Analogs as Metallo-β-Lactamase Inhibitors: Impact of 4-Linker on Potency and Spectrum of Inhibition” (Biomolecules, 2020).
Like-named read-outs stand apart in the source and are kept apart here.

What was measured:
VIM-2 [1] = molecular target: T1, VIM-2 (Escherichia coli, UniProt Q5U7L7); experiment: MBL inhibition, reporter substrate method, VIM-2; assay type: biochemical
T1 construct: made in house; host or cells: E. coli BL21(DE3) derivative, pET-9a
Procedure: (§1) Compounds were prepared in DMSO at a final concentration of 50 mM prior to dilution in the assay buffer. The reaction rate was measured as the variation of absorbance observed upon substrate hydrolysis in a UV-Vis spectrophotometer or microplate reader at a wavelength of 300 nm (imipenem, meropenem), 260 nm (cefotaxime), or 482 nm (nitrocefin) and in the presence of a purified MBL enzyme (such as VIM-1, VIM-2, VIM-4, NDM-1, and IMP-1, at a final concentration ranging from 1 to 70 nM).
(§2) These enzymes were overproduced in derivatives of E. coli BL21(DE3) carrying a pET-9 a (IMP-1, VIM-1, VIM-2, and VIM-4) or pET-15 b (NDM-1) vector into which the metallo-β-lactamase-encoding open reading frame was cloned. Bacterial strains were grown in the auto-inducing medium, ZYP-5052, supplemented with 50 μg/mL kanamycin for 24 h at 37 °C [38]. IMP-1, VIM-1, VIM-2, and VIM-4 were purified by ion-exchange and gel filtration chromatography using an AKTA Purifier platform (GE Healthcare, Uppsala, Sweden) as previously described. NDM-1 (residues 37-270) was produced as an amino-terminal 6 xHis-tag fusion protein and was purified using affinity chromatography. After growth for 26 h at 25 °C, bacterial cells were harvested by centrifugation (10,000× g, 30 min, 4 °C), resuspended in 10 mM HEPES buffer (pH 7.5) containing 0.15 M NaCl (buffer A) in one-fifth of the original culture volume, and lysed by sonication. Cellular debris was removed by centrifugation (12,000× g, 40 min, 4 °C). The clarified sample was loaded on a HisTrap HP column (bed volume, 5 mL; GE Healthcare), followed by a wash step (25 mL) with buffer A containing 20 mM imidazole. Proteins were eluted using buffer A containing 350 mM imidazole. The resulting protein sample was desalted (HiPrep 26/10 Desalting column, GE Healthcare) using 20 mM triethanolamine (pH 7.2) supplemented with 50 μM ZnSO4 and concentrated using an Amicon Ultra-15 (MW cut-off, 10 kDa; Millipore, Burlington, MA, USA). The concentrated sample was loaded on a Superdex 75 prep grade column (XK16/100 column; bed volume, 140 mL; GE Healthcare) and the proteins eluted with buffer A containing 50 μM ZnSO4. The active fractions were pooled and stored at −20 °C. The purity of the protein preparations was estimated >95% by SDS-PAGE analysis. The authenticity of the enzyme preparations was confirmed by electron spray ionization mass spectrometry, as previously described.
(§3) The inhibition constants (Ki) were determined on the basis of a model of competitive inhibition by analyzing the dependence of the ratio v0/vi (v0, hydrolysis velocity in the absence of inhibitor; vi, hydrolysis velocity in the presence of inhibitor) as a function of [I] as already described. The slope of the plot of v0/vi vs. [I], which corresponds to Km^S/(Km^S + [S])Ki (where Km^S is the Km value of the reporter substrate and [S] its concentration in the reaction mixture) and allowed the calculation of the Ki value. Alternatively, a Dixon plot analysis was carried out by measuring the initial hydrolysis rates in the presence of variable concentrations of inhibitor and substrate. This allowed Ki values to be determined and supported the hypothesis that the various compounds behaved as competitive inhibitors of the various tested enzymes. The assays were performed in triplicate.

NDM-1 [2] = molecular target: T2, NDM-1 (Klebsiella pneumoniae, UniProt C7C422); experiment: MBL inhibition, reporter substrate method, NDM-1; assay type: biochemical
Procedure: as §1, §2, §3

IMP-1 [3] = molecular target: T3, IMP-1 (Serratia marcescens, UniProt P52699); experiment: MBL inhibition, reporter substrate method, IMP-1; assay type: biochemical
T3 construct: made in house; host or cells: E. coli BL21(DE3) derivative, pET-9a
Procedure: as §1, §2, §3

VIM-2 [4] = molecular target: T1, VIM-2; details: cited from earlier work; for Ki: Schiff base analogs, read-out: Ki Value VIM-2, hydrazone-like compound (converted)
IMP-1 [5] = molecular target: T3, IMP-1; set-up: method as in PMID 32937203; details: cited from earlier work; for Inhibition of IMP-1 (dash in Ki column), corresponding hydrazone-like compound: in parentheses, 100 μM inhibitor
NDM-1 [6] = molecular target: T2, NDM-1; set-up: method as in PMID 32937203; details: cited from earlier work; for Inhibition of NDM-1 (dash in Ki column), corresponding hydrazone-like compound: in parentheses, 100 μM inhibitor
[7] = system: E. coli LZ2310(pLBII-VIM-2); experiment: microbe, parasite or virus in culture; assay type: cell-based, Escherichia coli; details: 220 μg added to 30 μg cefoxitin disk (positive control)
Procedure: The potential activity of selected compounds was assessed by the agar disk-diffusion method, according to the CLSI (Clinical Laboratory Standard Institute) recommendations, using Mueller–Hinton medium. The inhibitor (dissolved in DMSO) was added (maximum volume of 15 μL) to a commercially available disk containing a defined amount of a β-lactam antibiotic (30 μg of cefoxitin (Oxoid, Milan, Italy)). After incubation (18 h at 35 °C), the diameter of the growth inhibition zone was measured and compared to that obtained in the absence of inhibitor. DMSO and EDTA (220 μg) were used as negative and positive controls, respectively. Experiments were performed in triplicate.
These tests were performed on an isogenic laboratory strain obtained after transforming Escherichia coli LZ2310 strain with a derivative of the high copy number plasmid pLB-II carrying the cloned blaVIM-2 gene harboring a cloned gene encoding the functional metallo-β-lactamase. Strain LZ2310 is a triple knockout mutant derived from K12 in which the genes encoding for components of the three major efflux pump systems were inactivated (genotype, ∆norE ∆mdfA N43 acrA1) and was used to generate an hyperpermeable background for MBL production and investigate the potential contribution of such mechanisms to inhibitor efflux.

[8] = read-out: Percentage of Inhibition at 100 μM Inhibitor, VIM-2 (dash)
[9] = read-out: Percentage of Inhibition at 100 μM Inhibitor, NDM-1 (dash)
[10] = read-out: Percentage of Inhibition at 100 μM Inhibitor, IMP-1 (dash)
[11] = read-out: Inhibition of VIM-2 (dash in Ki column)
[12] = read-out: Inhibition of IMP-1 (dash in Ki column)
[13] = read-out: Inhibition of NDM-1 (dash in Ki column)

T2 sequence (C7C422 37-270 limits assumed): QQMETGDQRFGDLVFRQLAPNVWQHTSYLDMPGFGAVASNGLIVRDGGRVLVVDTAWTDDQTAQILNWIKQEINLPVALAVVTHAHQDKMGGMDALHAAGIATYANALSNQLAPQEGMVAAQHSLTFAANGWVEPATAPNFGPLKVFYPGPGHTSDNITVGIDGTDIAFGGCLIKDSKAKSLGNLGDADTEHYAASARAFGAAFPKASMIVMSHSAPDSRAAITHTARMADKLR
T3 sequence (P52699 19-246 limits assumed): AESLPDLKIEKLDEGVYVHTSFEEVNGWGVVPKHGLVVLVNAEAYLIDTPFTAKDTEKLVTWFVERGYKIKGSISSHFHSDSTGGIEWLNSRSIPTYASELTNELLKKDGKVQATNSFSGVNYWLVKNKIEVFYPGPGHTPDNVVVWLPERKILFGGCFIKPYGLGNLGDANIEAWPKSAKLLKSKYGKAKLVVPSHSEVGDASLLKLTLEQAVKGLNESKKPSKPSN

`O=C(O)CCC(=O)Nn1c(-c2cccc(-c3ccccc3)c2)n[nH]c1=S` [Compound 20] showed an inhibition at 100 µM (VIM-2 [1]; [8]) of less than 20%, an inhibition at 100 µM (NDM-1 [2]; [9]) of less than 20% and an inhibition at 100 µM (IMP-1 [3]; [10]) of less than 20%.

`O=C(O)c1ccccc1C(=O)Nn1c(-c2ccccc2)n[nH]c1=S` [Compound 17] showed a Ki (VIM-2 [1]; hydrazine and hydrazide series, read-out: Ki Value VIM-2) greater than 100 µM, an inhibition at 100 µM (VIM-2 [1]; [8]) of less than 20% and an inhibition at 100 µM (NDM-1 [2]; [9]) of less than 20%. It also gave an inhibition at 100 µM (IMP-1 [3]; [10]) of less than 20%.

In the case of `O=C(O)c1ccccc1CNn1c(CC(c2ccccc2)c2ccccc2)n[nH]c1=S` [Compound 11], the inhibition at 100 µM (VIM-2 [1]; [11]) is reported as less than 40%, the “Inhibition of NDM-1 (in words)” value (NDM-1 [2]) is reported as “moderately inhibited” and the Ki (NDM-1 [2]; hydrazine series, read-out: Ki Value NDM-1) is reported as 16.4 ± 2.6 µM. For the same molecule, the inhibition at 100 µM (IMP-1 [3]; [12]) was less than 40%.

For `O=C(O)c1ccccc1C=Nn1c(COc2ccc3ccccc3c2)n[nH]c1=S` [hydrazone-like analog of 12], the Ki (VIM-2 [4]) is listed as 2 µM, the “Inhibition of IMP-1 (dash in Ki column), corresponding hydrazone-like compound” value (IMP-1 [5]) is listed as “- (-) (<40% of inhibition in the presence of 100 μM inhibitor)” and the Ki (NDM-1 [6]; Schiff base analogs, read-out: Ki Value NDM-1, hydrazone-like compound (converted)) is listed as 2400 nM.

In the case of `O=C(O)c1ccccc1C=Nn1c(-c2cc3ccccc3[nH]2)n[nH]c1=S` [hydrazone-like analog of 5], the inhibition at 100 µM (VIM-2 [1]; read-out: Inhibition of VIM-2 (dash in Ki column), corresponding hydrazone-like compound) is reported as less than 40%, the Ki (NDM-1 [2]; value in parentheses, analogs of compounds 5 and 6 (this work), read-out: Ki Value NDM-1, corresponding hydrazone-like compound) is reported as 9.4 µM and the Ki (IMP-1 [3]; value in parentheses, analogs of compounds 5 and 6 (this work), read-out: Ki Value IMP-1, corresponding hydrazone-like compound) is reported as 55 µM.

`O=C(O)c1ccccc1C(=O)Nn1c(Cc2ccccc2)n[nH]c1=S` [Compound 18] showed an inhibition at 100 µM (VIM-2 [1]; [8]) of less than 20%, an inhibition at 100 µM (NDM-1 [2]; [9]) of less than 20% and an inhibition at 100 µM (IMP-1 [3]; [10]) of less than 20%.

For `O=C(O)c1ccc(C=Nn2c(CCc3ccccc3)n[nH]c2=S)cc1` [hydrazone-like analog of 10], the “Inhibition of VIM-2 (dash in Ki column), corresponding hydrazone-like compound” value (VIM-2 [4]; in parentheses, 100 μM inhibitor) is listed as “- (-) (<40% of inhibition in the presence of 100 μM inhibitor)”, the Ki (IMP-1 [5]; value in parentheses, read-out: Ki Value IMP-1, corresponding hydrazone-like compound (converted)) is listed as 11 µM and the “Inhibition of NDM-1 (dash in Ki column), corresponding hydrazone-like compound” value (NDM-1 [6]) is listed as “- (-) (<40% of inhibition in the presence of 100 μM inhibitor)”.

`O=C(O)c1ccccc1CNn1c(CCc2ccccc2)n[nH]c1=S` [Compound 8] showed an inhibition at 100 µM (VIM-2 [1]; [11]) of less than 40%, an inhibition at 100 µM (NDM-1 [2]; [13]) of less than 40% and an inhibition at 100 µM (IMP-1 [3]; [12]) of less than 40%.

In the case of `O=C(O)c1ccccc1C=Nn1c(CCc2ccccc2)n[nH]c1=S` [hydrazone-like analog of 8], the Ki (VIM-2 [4]) is listed as 7 µM, the “Inhibition of IMP-1 (dash in Ki column), corresponding hydrazone-like compound” value (IMP-1 [5]) is listed as “- (-) (<40% of inhibition in the presence of 100 μM inhibitor)” and the “Inhibition of NDM-1 (dash in Ki column), corresponding hydrazone-like compound” value (NDM-1 [6]) is listed as “- (-) (<40% of inhibition in the presence of 100 μM inhibitor)”.

For `O=C(O)CN(CCN(CC(=O)O)CC(=O)O)CC(=O)O` [EDTA, reference compound], the “Inhibition Zone Diameter” value [7] was 28 mm.

For `O=C(O)c1ccccc1CNn1c(COc2ccc3ccccc3c2)n[nH]c1=S` [Compound 12], the inhibition at 100 µM (VIM-2 [1]; [11]) was less than 40%, the inhibition at 100 µM (NDM-1 [2]; [13]) was less than 40% and the inhibition at 100 µM (IMP-1 [3]; [12]) was less than 40%.
